Data taken from the supplement of paper PMC10307832.

Columns and labels:
Assay in all cases: relative viability (nuclei count vs DMSO), 5 days (fraction); higher = more cells survive
Avagacestat + Pictilisib = compound: NC(=O)[C@@H](CCC(F)(F)F)N(Cc1ccc(-c2ncon2)cc1F)S(=O)(=O)c1ccc(Cl)cc1 [Avagacestat] + CS(=O)(=O)N1CCN(Cc2cc3nc(-c4cccc5[nH]ncc45)nc(N4CCOCC4)c3s2)CC1 [Pictilisib] (partner 1 µM)
Procedure, shortened: (§1)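 The day after seeding in 1536-well plates, lung cancer cell lines were treated by pin tool with a single drug, or with a fixed anchor-drug dose together with five library-drug doses (not always all listed) in √10 steps. After 5 days, a combined fix-and-stain solution (final 0.05% Triton X-100, 1% formaldehyde, 1 ug/ml Hoechst) was added. Nuclei counted on 4× images gave relative viability as treated counts over vehicle counts, reported as the median of duplicate plates.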

Avagacestat + Phenformin = compound: NC(=O)[C@@H](CCC(F)(F)F)N(Cc1ccc(-c2ncon2)cc1F)S(=O)(=O)c1ccc(Cl)cc1 [Avagacestat] + N=C(N)NC(=N)NCCc1ccccc1 [Phenformin] (partner 250 µM)
Procedure, shortened: as §1

Avagacestat + Decitabine = compound: NC(=O)[C@@H](CCC(F)(F)F)N(Cc1ccc(-c2ncon2)cc1F)S(=O)(=O)c1ccc(Cl)cc1 [Avagacestat] + Nc1ncn([C@H]2C[C@H](O)[C@@H](CO)O2)c(=O)n1 [Decitabine] (partner 2 µM)
Procedure, shortened: as §1

[1] = compound: NC(=O)[C@@H](CCC(F)(F)F)N(Cc1ccc(-c2ncon2)cc1F)S(=O)(=O)c1ccc(Cl)cc1 [Avagacestat] + CC(=O)c1c(C)c2cnc(Nc3ccc(N4CCNCC4)cn3)nc2n(C2CCCC2)c1=O [Palbociclib] (partner 0.5 µM)
Procedure, shortened: as §1

Row | Cell Line | relative viability (Avagacestat + Pictilisib; first compound 0.08 µM) | relative viability (Avagacestat + Pictilisib; first compound 0.253 µM) | relative viability (Avagacestat + Pictilisib; first compound 0.8 µM) | relative viability (Avagacestat + Pictilisib; first compound 2.53 µM) | relative viability (Avagacestat + Pictilisib; first compound 8 µM) | relative viability (Avagacestat + Phenformin; first compound 0.08 µM) | relative viability (Avagacestat + Phenformin; first compound 0.253 µM) | relative viability (Avagacestat + Phenformin; first compound 0.8 µM) | relative viability (Avagacestat + Phenformin; first compound 2.53 µM) | relative viability (Avagacestat + Phenformin; first compound 8 µM) | relative viability (Avagacestat + Decitabine; first compound 0.08 µM) | relative viability (Avagacestat + Decitabine; first compound 0.253 µM) | relative viability (Avagacestat + Decitabine; first compound 0.8 µM) | relative viability (Avagacestat + Decitabine; first compound 2.53 µM) | relative viability (Avagacestat + Decitabine; first compound 8 µM) | relative viability ([1]; first compound 0.08 µM) | relative viability ([1]; first compound 0.253 µM) | relative viability ([1]; first compound 0.8 µM) | relative viability ([1]; first compound 2.53 µM) | relative viability ([1]; first compound 8 µM)
1 | H3255 | 0.488 | 0.544 | 0.494 | 0.481 | 0.474 | 0.357 | 0.352 | 0.326 | 0.353 | 0.431 | 0.619 | 0.731 | 0.678 | 0.591 | 0.542 | 0.312 | 0.361 | 0.331 | 0.373 | 0.401
2 | EPLC-272H | 0.325 | 0.273 | 0.346 | 0.371 | 0.241 | 0.309 | 0.321 | 0.321 | 0.306 | 0.328 | 0.421 | 0.435 | 0.4 | 0.322 | 0.352 | 0.368 | 0.344 | 0.327 | 0.32 | 0.291
3 | SK-LU-1 | 0.628 | 0.526 | 0.586 | – | 0.354 | 0.539 | 0.499 | 0.523 | 0.353 | 0.474 | 0.66 | 0.638 | 0.699 | 0.53 | 0.552 | 0.377 | 0.372 | 0.327 | 0.338 | 0.345
4 | NCI-H1793 | 0.381 | 0.325 | 0.326 | 0.413 | 0.27 | 0.411 | 0.291 | 0.337 | 0.284 | 0.319 | 0.504 | 0.532 | 0.508 | 0.472 | 0.496 | 0.348 | 0.324 | 0.331 | 0.263 | 0.316
5 | EKVX | 0.443 | 0.528 | 0.523 | 0.393 | 0.435 | 0.234 | 0.259 | 0.278 | 0.256 | 0.229 | 0.391 | 0.299 | 0.378 | 0.354 | 0.36 | 0.392 | 0.374 | 0.405 | 0.365 | 0.293
6 | ChaGo-K-1 | 0.701 | 0.675 | 0.924 | 1.09 | 0.801 | 0.599 | 0.53 | 0.511 | 0.49 | 0.514 | 0.558 | 0.526 | 0.492 | 0.516 | 0.49 | 1.05 | 1.01 | 0.933 | 0.887 | 0.798
7 | NCI-H2347 | 0.467 | 0.688 | 0.849 | 0.387 | 0.624 | 0.363 | 0.537 | 0.602 | 0.448 | 0.357 | 0.661 | 0.654 | 0.631 | 0.553 | 0.6 | 0.398 | 0.481 | 0.409 | 0.445 | 0.462
8 | EMC-BAC-2 | 0.567 | 0.554 | 0.564 | 0.489 | 0.517 | 0.518 | 0.607 | 0.574 | 0.522 | 0.489 | 1.1 | 1.06 | 1.09 | 1.07 | 1.07 | 0.539 | 0.577 | 0.556 | 0.52 | 0.543
